Measurements published in the supplement of paper PMC10307832.

Legend:
Test in all cases: relative viability (nuclei count vs DMSO), 5 days (fraction); higher = more cells survive
[1] = compound: CC1=C(C=C(C=C1)NC(=O)C2=CC(=CC=C2)C(C)(C)C#N)NC3=CC4=C(C=C3)N=CN(C4=O)C [AZ628] + O=C(c1cc(Cc2n[nH]c(=O)c3ccccc23)ccc1F)N1CCN(C(=O)C2CC2)CC1 [Olaparib] (partner 8 µM)
Procedure, shortened: (§1)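 Relative viability equals treated-well nuclei counts divided by vehicle-well nuclei counts. Counts came from 4× images of lung cancer cell lines grown in 1536-well plates for 5 days after pin-tool dosing on the day after seeding. Dosing used one drug alone or a fixed anchor-drug dose plus five library-drug doses (not always all listed) in √10 steps, and values are medians of duplicate plates.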

[2] = compound: CC1=C(C=C(C=C1)NC(=O)C2=CC(=CC=C2)C(C)(C)C#N)NC3=CC4=C(C=C3)N=CN(C4=O)C [AZ628] + CS(=O)(=O)CCNCc1ccc(-c2ccc3ncnc(Nc4ccc(OCc5cccc(F)c5)c(Cl)c4)c3c2)o1 [Lapatinib] (partner 2 µM)
Procedure, shortened: as §1

[3] = compound: C1CC2=C(C1)C=C(C=C2)OC3=NC(=C4C(=N3)N(C=N4)CC5=CC=C(C=C5)C6=CC=CC=C6)N[C@@H](CC7=CC=CC=C7)CO [QS11] + CC(=O)c1c(C)c2cnc(Nc3ccc(N4CCNCC4)cn3)nc2n(C2CCCC2)c1=O [Palbociclib] (partner 0.5 µM)
Procedure, shortened: as §1

[4] = compound: C1CC2=C(C1)C=C(C=C2)OC3=NC(=C4C(=N3)N(C=N4)CC5=CC=C(C=C5)C6=CC=CC=C6)N[C@@H](CC7=CC=CC=C7)CO [QS11] + CS(=O)(=O)N1CCN(Cc2cc3nc(-c4cccc5[nH]ncc45)nc(N4CCOCC4)c3s2)CC1 [Pictilisib] (partner 1 µM)
Procedure, shortened: as §1

| Cell Line | relative viability ([1]; first compound 0.08 µM) | relative viability ([1]; first compound 0.253 µM) | relative viability ([1]; first compound 0.8 µM) | relative viability ([1]; first compound 2.53 µM) | relative viability ([1]; first compound 8 µM) | relative viability ([2]; first compound 0.08 µM) | relative viability ([2]; first compound 0.253 µM) | relative viability ([2]; first compound 0.8 µM) | relative viability ([2]; first compound 2.53 µM) | relative viability ([2]; first compound 8 µM) | relative viability ([3]; first compound 0.08 µM) | relative viability ([3]; first compound 0.253 µM) | relative viability ([3]; first compound 0.8 µM) | relative viability ([3]; first compound 2.53 µM) | relative viability ([3]; first compound 8 µM) | relative viability ([4]; first compound 0.08 µM) | relative viability ([4]; first compound 0.253 µM) | relative viability ([4]; first compound 0.8 µM) | relative viability ([4]; first compound 2.53 µM) | relative viability ([4]; first compound 8 µM) |
| --- | --- | --- | --- | --- | --- | --- | --- | --- | --- | --- | --- | --- | --- | --- | --- | --- | --- | --- | --- | --- |
| LU99A | 0.269 | 0.255 | 0.272 | 0.296 | 0.214 | 0.973 | 0.966 | 1.11 | 0.943 | 0.573 | 0.421 | 0.469 | 0.437 | 0.4 | 0.395 | 0.343 | 0.317 | 0.357 | 0.296 | 0.307 |
| NCI-H358 | 0.567 | 0.457 | 0.361 | 0.417 | 0.295 | 0.446 | 0.422 | 0.404 | 0.432 | 0.339 | 0.132 | 0.128 | 0.134 | 0.159 | 0.118 | 0.338 | 0.315 | 0.387 | 0.564 | 0.553 |
| NCI-H1666 | 0.733 | 0.745 | 0.671 | 0.739 | 0.782 | 0.759 | 0.58 | 0.521 | 0.477 | 0.539 | 0.641 | 0.651 | 0.586 | 0.621 | 0.516 | 0.328 | 0.359 | 0.377 | 0.474 | 0.423 |
| LOU-NH91 | 0.935 | 0.94 | 0.965 | 0.936 | 0.764 | 0.776 | 0.738 | 0.724 | 0.67 | 0.626 | 0.527 | 0.536 | 0.513 | 0.58 | 0.629 | 0.541 | 0.484 | – | 0.494 | 0.54 |
| RERF-LC-KJ | 0.807 | 0.925 | 1.01 | 1.01 | 0.865 | 0.825 | 0.837 | 0.846 | 0.839 | 0.888 | 1.08 | 0.999 | 0.724 | 0.895 | 0.874 | 0.628 | 0.563 | 0.506 | 0.517 | 0.497 |
| NCI-H2085 | 0.805 | 0.756 | 0.895 | 0.865 | 0.703 | 0.824 | 0.685 | 0.795 | 0.741 | 0.743 | 0.474 | 0.509 | 0.402 | 0.433 | 0.475 | 0.432 | 0.404 | 0.456 | 0.432 | 0.519 |
| NCI-H1793 | 0.971 | 0.805 | 0.717 | 0.819 | 0.445 | 0.927 | 0.627 | 0.573 | 0.665 | 0.579 | 0.335 | 0.274 | 0.29 | 0.404 | 0.491 | 0.259 | 0.329 | 0.356 | 0.309 | 0.31 |
| HCC-366 | 0.358 | 0.31 | 0.263 | 0.271 | 0.192 | 1.1 | 0.918 | 0.968 | 0.87 | 0.717 | 0.433 | 0.454 | – | 0.162 | 0.0973 | 0.138 | 0.133 | – | 0.202 | 0.0869 |
